# Assay results taken from patent US12691084B2, “Pharmaceutical composition for preventing or treating bone diseases” (INDUSTRY FOUNDATION OF CHONNAM NATIONAL UNIVERSITY, priority 2019, dated 2026).
# Experiments:
# [1] = tested on: monocytes isolated from mouse bone marrow; experiment: MTT assay for cytotoxicity evaluation (cell viability); type: cell-based; details: 3-10 μM; 4 days
# Procedure: 1×10^4 monocytes isolated from mouse bone marrow per well were put into a 96-well plate, and in order to assess cell viability, the cells were cultured for 4 days while being treated with PSTP-3,5-Me at different concentrations (3-10 μM). A cell viability assay reagent (DoGen, EZ-3000) was used for treatment with 1/10 of the volume of the medium, and the cells were cultured at 37° C. for 30 minutes and confirmed at […]. […] In other words, it is understood that no cytotoxicity appeared.
# [2] = tested on: mouse bone marrow cells; experiment: F-actin staining, actin-ring formation; type: cell-based; details: 6 uM, 4 to 5 days
# Procedure: In order to determine the activity of differentiated osteoclasts, an ability to differentiate the cells into multinuclear cells was firstly confirmed through F-actin staining. Specifically, 5×10^4 mouse hone marrow cells per well were put into a 24-well plate in which glass coated with L-Lysine was placed (Corning, 354085). Simultaneously, the cells were treated with PSTP-3,5-Me 6 uM and cultured for 4 to 5 days. The differentiated cells were fixed with 4% formaldehyde for 10 minutes and washed with PBS. For the antigen-antibody reaction, a reaction was conducted in 0.1% Triton-PBS for 20 minutes, followed by reacting the same in 1% BSA for 1 hour. Thereafter, the F-actin antibody (Thermo Fisher Scientific, A12379) was reacted for 1 hour and than washed. Cell nuclei were stained through 4′,6-diamidino-2-phenylindole (DAPI, Dilactate, Thermo Fisher Scientific, D3571) staining, and then photographed under a microscope. As a result, it was confirmed by comparing shies of F-actin that PSTP-3,5-Me inhibited differentiation into multinuclear cells.
compound,measurement,setting,value
"Cc1cc(C)cc(N([C@@H](C)C(=O)Nc2ccccc2Sc2ccccc2)S(C)(=O)=O)c1 [#25-D5, N^2-(3,5-dimethylphenyl)-N^2-(methylsulfonyl)-N-[2-(phenylthio)phenyl]alanineamide]",cell viability,[1],did not affect cell viability
same,differentiation into multinuclear cells (F-actin),[2],inhibited
same,actin-ring formation,[2]; compared to control,small-sized actin-ring structure
